Where a name gives a salt, the structure may show the parent alone.
Row | Structure (SMILES) | melting point [°C]
1 | Brc1cccc([C@@H]2Cc3cnc(Nc4ccc(CCN5CCCCC5)cc4)nc3-c3ccccc32)c1 (as salt: hydrochloride) [Example 78, (S)-6-(3-bromophenyl)-N-(4-(2-(piperidin-1-yl)ethyl)phenyl)-5,6-dihydrobenzo[h]quinazolin-2-amine hydrochloride] | 120 to 125
2 | CN(C)CCCNc1ncc2c(n1)-c1ccccc1C(c1cccc(Br)c1)C2 (stereo not drawn) [Example 5, N^1-(6-(3-bromophenyl)-5,6-dihydrobenzo[h]quinazolin-2-yl)-N^3,N^3-dimethylpropane-1,3-diamine] | 120 to 122
3 | CC(C)(C)OC(=O)N1CCN(CCc2ccc(Nc3ncc4c(n3)-c3ccccc3C(c3ccccc3C(F)(F)F)C4)cc2)CC1 (stereo not drawn) [Example 72, tert-butyl 4-(4-(6-(2-(trifluoromethyl)phenyl)-5,6-dihydrobenzo[h]quinazolin-2-ylamino)phenethyl)piperazine-1-carboxylate] | 234 to 235
4 | CCCCN(C)CCc1ccc(Nc2ncc3c(n2)-c2ccccc2C(c2ccc(F)c(F)c2)C3)cc1 (stereo not drawn) (as salt: hydrochloride) [Example 58, N-(4-(2-(butyl(methyl)amino)ethyl)phenyl)-6-(3,4-difluorophenyl)-5,6-dihydrobenzo[h]quinazolin-2-amine] | 85 to 91
5 | CCN(CCc1ccc(Nc2ncc3c(n2)-c2ccccc2C(c2cccc(Br)c2)C3)cc1)Cc1ccncc1 (stereo not drawn) [Example 41, 6-(3-bromophenyl)-N-(4-(2-(ethyl(pyridin-4-ylmethyl)amino)ethyl)phenyl)-5,6-dihydrobenzo[h]quinazolin-2-amine] | 88 to 90
6 | Clc1ccc([C@@H]2Cc3cnc(Nc4ccccc4)nc3-c3ccccc32)cc1Cl [Example 15, (S)-6-(3,4-dichlorophenyl)-N-phenyl-5,6-dihydrobenzo[h]quinazolin-2-amine] | 159
7 | CN(CCc1ccc(Nc2ncc3c(n2)-c2ccccc2C(c2cccc(Br)c2)C3)cc1)CCc1ccccn1 (stereo not drawn) [Example 36, 6-(3-bromophenyl)-N-(4-(2-(methyl(2-(pyridin-2-yl)ethyl)amino)ethyl)phenyl)-5,6-dihydrobenzo[h]quinazolin-2-amine] | 75 to 77
8 | Nc1ncc2c(n1)-c1ccccc1[C@H](c1ccc(Cl)c(Cl)c1)C2 | 159 to 160
9 | Clc1ccc(C2Cc3cnc(Nc4ccc(CCN5CCCCC5)cc4)nc3-c3ccccc32)c(Cl)c1 (stereo not drawn) (as salt: hydrochloride) [Example 76, 6-(2,4-dichlorophenyl)-N-(4-(2-(piperidin-1-yl)ethyl)phenyl)-5,6-dihydrobenzo[h]quinazolin-2-amine hydrochloride] | 225 to 230
10 | Nc1ncc2c(n1)-c1ccccc1C(c1ccc(Cl)c(Cl)c1)C2 (stereo not drawn) | 159 to 160
11 | Fc1ccc(C2Cc3cnc(NCCCN4CCCCC4)nc3-c3ccccc32)cc1 (stereo not drawn) [Example 16, 6-(4-fluorophenyl)-N-(3-(piperidin-1-yl)propyl)-5,6-dihydrobenzo[h]quinazolin-2-amine] | 60 to 62
12 | CN(C)CCNCCc1ccc(Nc2ncc3c(n2)-c2ccccc2C(c2cccc(Br)c2)C3)cc1 (stereo not drawn) [Example 44, N^1-(4-(6-(3-bromophenyl)-5,6-dihydrobenzo[h]quinazolin-2-ylamino)phenethyl)-N^2,N^2-dimethylethane-1,2-diamine] | 75 to 77
13 | COCCN1CCN(CCc2ccc(Nc3ncc4c(n3)-c3ccccc3C(c3ccc(Cl)cc3Cl)C4)cc2)CC1 (stereo not drawn) (as salt: hydrochloride) | 208 to 212
14 | CCCCN(C)CCc1ccc(Nc2ncc3c(n2)-c2ccccc2[C@H](c2ccccc2F)C3)cc1 (as salt: hydrochloride) [Example 110, (R)—N-(4-(2-(butyl(methyl)amino)ethyl)phenyl)-6-(2-fluorophenyl)-5,6-dihydrobenzo[h]quinazolin-2-amine hydrochloride] | 78 to 81
15 | COCCN1CCN(CCc2ccc(Nc3ncc4c(n3)-c3ccccc3C(c3ccccc3)C4)cc2)CC1 (stereo not drawn) [Example 65, N-(4-(2-(4-(2-methoxyethyl)piperazin-1-yl)ethyl)phenyl)-6-phenyl-5,6-dihydrobenzo[h]quinazolin-2-amine] | 52 to 54
16 | Clc1ccccc1[C@H]1Cc2cnc(Nc3ccc(CCN4CCCCC4)cc3)nc2-c2ccccc21 (as salt: hydrochloride) | 164 to 167
17 | CCCCN(C)CCc1ccc(Nc2ncc3c(n2)-c2ccccc2[C@H](c2cccc(Br)c2)C3)cc1 (as salt: hydrochloride) [Example 80, (S)-6-(3-bromophenyl)-N-(4-(2-(butyl(methyl)amino)ethyl)phenyl)-5,6-dihydrobenzo[h]quinazolin-2-amine hydrochloride] | 146 to 153

Row | Structure (SMILES) | melting point [°C]
18 | COCCN1CCN(CCc2ccc(Nc3ncc4c(n3)-c3ccccc3C(c3ccc(Cl)cc3)C4)cc2)CC1 (stereo not drawn) (as salt: hydrochloride) [Example 56, 6-(4-chlorophenyl)-N-(4-(2-(4-(2-methoxyethyl)piperazin-1-yl)ethyl)phenyl)-5,6-dihydrobenzo[h]quinazolin-2-amine hydrochloride] | 204 to 214
19 | CN(CCc1ccc(Nc2ncc3c(n2)-c2ccccc2[C@H](c2ccccc2F)C3)cc1)C1CCCCC1 (as salt: HCl) [Example 95, (R)—N-(4-(2-(cyclohexyl(methyl)amino)ethyl)phenyl)-6-(2-fluorophenyl)-5,6-dihydrobenzo[h]quinazolin-2-amine] | 158 to 164
20 | COCCN1CCN(CCc2ccc(Nc3ncc4c(n3)-c3ccccc3[C@H](c3ccc(F)c(F)c3)C4)cc2)CC1 (as salt: hydrochloride) [Example 83, N-(4-(2-(4-(2-(S)-6-(3,4-difluorophenyl)-N-(4-(2-(4-(2-methoxyethyl)piperazin-1-yl)ethyl)phenyl)-5,6-dihydrobenzo[h]quinazolin-2-amine hydrochloride] | 190 to 192
21 | CN1CCN(CCc2ccc(Nc3ncc4c(n3)-c3ccccc3C(c3ccc(Cl)c(Cl)c3)C4)cc2)CC1 (stereo not drawn) [Example 52, 6-(3,4-dichlorophenyl)-N-(4-(2-(4-methylpiperazin-1-yl)ethyl)phenyl)-5,6-dihydrobenzo[h]quinazolin-2-amine] | 119 to 121
22 | CC(C)(C)OC(=O)N1CCC(Nc2ncc3c(n2)-c2ccccc2C(c2ccc(Cl)c(Cl)c2)C3)CC1 (stereo not drawn) [Example 19, tert-butyl 4-(6-(3,4-dichlorophenyl)-5,6-dihydrobenzo[h]quinazolin-2-ylamino)piperidine-1-carboxylate] | 94 to 96
23 | COCCN1CCN(CCc2ccc(Nc3ncc4c(n3)-c3ccccc3[C@@H](c3ccc(F)c(F)c3)C4)cc2)CC1 (as salt: hydrochloride) [Example 90, (R)-6-(3,4-difluorophenyl)-N-(4-(2-(4-(2-methoxyethyl)piperazin-1-yl)ethyl)phenyl)-5,6-dihydrobenzo[h]quinazolin-2-amine hydrochloride] | 190 to 192
24 | CN(CCc1ccc(Nc2ncc3c(n2)-c2ccccc2[C@H](c2ccc(Cl)c(Cl)c2)C3)cc1)C1CCCCC1 (as salt: hydrochloride) [Example 106, (S)—N-(4-(2-(cyclohexyl(methyl)amino)ethyl)phenyl)-6-(3,4-dichlorophenyl)-5,6-dihydrobenzo[h]quinazolin-2-amine hydrochloride salt] | 175 to 185
25 | COCCN1CCN(CCc2cc(Nc3ncc4c(n3)-c3ccccc3[C@H](c3ccccc3F)C4)ccc2F)CC1 (as salt: hydrochloride) [Example 175, (R)—N-(4-fluoro-3-(2-(4-(2-methoxyethyl)piperazin-1-yl)ethyl)phenyl)-6-(2-fluorophenyl)-5,6-dihydrobenzo[h]quinazolin-2-amine hydrochloride salt] | 199 to 201
26 | Nc1cc2c(cn1)CC(c1ccc(Cl)cc1Cl)c1ccccc1-2 (stereo not drawn) [Example 156, 6-(2,4-dichlorophenyl)-5,6-dihydrobenzo[f]isoquinolin-2-amine] | 189 to 193
27 | CN(C)CCCCNc1ncc2c(n1)-c1ccccc1C(c1cccc(Br)c1)C2 (stereo not drawn) [Example 6, N^1-(6-(3-bromophenyl)-5,6-dihydrobenzo[h]quinazolin-2-yl)-N^4,N^4-dimethylbutane-1,4-diamine] | 115 to 117
28 | OCCc1ccc(Nc2ncc3c(n2)-c2ccccc2[C@@H](c2ccc(Cl)c(Cl)c2)C3)cc1 | 113 to 115
29 | COCCN1CCN(CCc2ccc(Nc3ncc4c(n3)-c3ccccc3[C@H](c3ccc(Br)cc3)C4)cc2)CC1 (as salt: hydrochloride) [Example 97, (S)-6-(4-bromophenyl)-N-(4-(2-(4-(2-methoxyethyl)piperazin-1-yl)ethyl)phenyl)-5,6-dihydrobenzo[h]quinazolin-2-amine hydrochloride salt] | 265 to 270
30 | CN(CCc1ccc(Nc2ncc3c(n2)-c2ccccc2C(c2ccc(F)c(F)c2)C3)cc1)C1CCCCC1 (stereo not drawn) (as salt: hydrochloride) [Example 60, N-(4-(2-(cyclohexyl(methyl)amino)ethyl)phenyl)-6-(3,4-difluorophenyl)-5,6-dihydrobenzo[h]quinazolin-2-amine] | 107 to 114
31 | Brc1cccc(C2Cc3cnc(Nc4ccc(CCNCCN5CCOCC5)cc4)nc3-c3ccccc32)c1 (stereo not drawn) [Example 45, 6-(3-bromophenyl)-N-(4-(2-(2-morpholinoethylamino)ethyl)phenyl)-5,6-dihydrobenzo[h]quinazolin-2-amine] | 85 to 87
32 | N#Cc1c(NCCCN2CCCC2)ncc2c1-c1ccccc1C(c1ccc(Cl)c(Cl)c1)C2 (stereo not drawn) [Example 180, 6-(3,4-dichlorophenyl)-2-(3-(pyrrolidin-1-yl)propylamino)-5,6-dihydrobenzo[f]isoquinoline-1-carbonitrile] | 104 to 110
33 | CN(CCc1ccc(Nc2ncc3c(n2)-c2ccccc2C(c2cccc(Br)c2)C3)cc1)C1CCCCC1 (stereo not drawn) [Example 29, 6-(3-bromophenyl)-N-(4-(2-(cyclohexyl(methyl)amino)ethyl)phenyl)-5,6-dihydrobenzo[h]quinazolin-2-amine] | 215 to 217
